{"source": "paper PMC11882969", "about": "(Nature Communications, 2025)", "biological_target": "hCB1 (Homo sapiens, UniProt P21554)", "sequence (P21554 whole entry)": "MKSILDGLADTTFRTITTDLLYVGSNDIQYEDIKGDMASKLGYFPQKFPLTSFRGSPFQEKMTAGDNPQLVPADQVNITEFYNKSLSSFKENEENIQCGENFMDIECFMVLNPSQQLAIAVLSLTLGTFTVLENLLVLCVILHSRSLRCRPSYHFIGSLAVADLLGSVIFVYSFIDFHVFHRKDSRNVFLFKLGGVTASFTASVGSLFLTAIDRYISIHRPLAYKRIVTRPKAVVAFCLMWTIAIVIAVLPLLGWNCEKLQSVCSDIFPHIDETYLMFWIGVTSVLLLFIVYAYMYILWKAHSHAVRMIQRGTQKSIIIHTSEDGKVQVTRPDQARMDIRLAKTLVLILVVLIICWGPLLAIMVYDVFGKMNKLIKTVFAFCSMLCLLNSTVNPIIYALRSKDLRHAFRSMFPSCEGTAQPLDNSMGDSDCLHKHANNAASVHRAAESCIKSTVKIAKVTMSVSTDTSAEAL", "assay": "bioSensAll ebBRET signaling profiling, hCB1", "format": "cell-based", "parameters": "host or cells: HEK293SL cells, transient PEI transfection", "conditions": "for RE, relative efficacy: vs CP-55,940", "note": "Where “and” joins values, the source holds several entries; their conditions need not be identical. Equal entries are not always repeated.", "data": [{"smiles": "COC(=O)C(C)(NC(=O)c1cc(C)n(-c2cccc(C(F)(F)F)c2)n1)c1cccs1", "note": "(centres unmarked) [‘4042]", "values": [{"measurement": "Gs hCB1", "setting": "Log [Compound] (M) -8.39794", "value": 6872}, {"measurement": "Gz hCB1", "setting": "Log [Compound] (M) -8.39794", "value": "84.7686 and 103.436 and 80.0517"}, {"measurement": "G13 hCB1", "setting": "Log [Compound] (M) -8.68787", "value": "39.593 and 30.3572"}, {"measurement": "G15 hCB1", "setting": "Log [Compound] (M) -8.68787", "value": "97.8136 and 87.6381"}, {"measurement": "Gi1 hCB1", "setting": "Log [Compound] (M) -8.68787", "value": "91.7785 and 78.2511 and 91.448"}, {"measurement": "Gi2 hCB1", "setting": "Log [Compound] (M) -8.68787", "value": "95.663 and 73.4469"}, {"measurement": "GoB hCB1", "setting": "Log [Compound] (M) -8.68787", "value": "96.3854 and 73.3436 and 84.1561"}, {"measurement": "Gq hCB1", "setting": "Log [Compound] (M) -8.68787", "value": 1066}, {"measurement": "Gs hCB1", "setting": "Log [Compound] (M) -8.68787", "value": 6260}, {"measurement": "Gz hCB1", "setting": "Log [Compound] (M) -8.68787", "value": "96.1128 and 114.514 and 58.5255"}, {"measurement": "G13 hCB1", "setting": "Log [Compound] (M) -9.15521", "value": "17.7531 and 19.6344"}, {"measurement": "G15 hCB1", "setting": "Log [Compound] (M) -9.15521", "value": "67.1744 and 66.4649"}, {"measurement": "Gi1 hCB1", "setting": "Log [Compound] (M) -9.15521", "value": "78.7311 and 50.1158 and 63.8224"}, {"measurement": "Gi2 hCB1", "setting": "Log [Compound] (M) -9.15521", "value": "65.4704 and 47.7485"}, {"measurement": "GoB hCB1", "setting": "Log [Compound] (M) -9.15521", "value": "59.8283 and 42.5561 and 56.6226"}, {"measurement": "Gq hCB1", "setting": "Log [Compound] (M) -9.15521", "value": 1117}, {"measurement": "Gs hCB1", "setting": "Log [Compound] (M) -9.15521", "value": 6551}, {"measurement": "G15 hCB1", "setting": "Log [Compound] (M) -9.61989", "value": "31.8785 and 42.2144"}, {"measurement": "Gi2 hCB1", "setting": "Log [Compound] (M) -9.61989", "value": "32.2472 and 21.8596"}, {"measurement": "GoB hCB1", "setting": "Log [Compound] (M) -9.61989", "value": "29.5611 and 20.1669 and 24.5425"}, {"measurement": "Gq hCB1", "setting": "Log [Compound] (M) -9.61989", "value": 1001}, {"measurement": "Gs hCB1", "setting": "Log [Compound] (M) -9.61989", "value": 6299}, {"measurement": "G15 hCB1", "setting": "Log [Compound] (M) -10.0969", "value": "15.3529 and 24.9603"}, {"measurement": "GoB hCB1", "setting": "Log [Compound] (M) -10.0969", "value": "15.2383 and 7.632 and 9.061"}, {"measurement": "Gq hCB1", "setting": "Log [Compound] (M) -10.0969", "value": 1213}, {"measurement": "Gs hCB1", "setting": "Log [Compound] (M) -10.0969", "value": 6447}, {"measurement": "Gq hCB1", "setting": "Log [Compound] (M) -10.5529", "value": 1076}, {"measurement": "Gs hCB1", "setting": "Log [Compound] (M) -10.5529", "value": 6140}, {"measurement": "Gq hCB1", "setting": "Log [Compound] (M) -11.0177", "value": 1045}, {"measurement": "Gs hCB1", "setting": "Log [Compound] (M) -11.0177", "value": 6569}, {"measurement": "Gq hCB1", "setting": "Log [Compound] (M) -11.4949", "value": 1094}, {"measurement": "Gs hCB1", "setting": "Log [Compound] (M) -11.4949", "value": 6245}, {"measurement": "Gq hCB1", "setting": "Log [Compound] (M) -11.9208", "value": 1111}, {"measurement": "Gs hCB1", "setting": "Log [Compound] (M) -11.9208", "value": 6591}, {"measurement": "Gq hCB1", "setting": "Log [Compound] (M) -12.3979", "value": 1117}, {"measurement": "Gs hCB1", "setting": "Log [Compound] (M) -12.3979", "value": 6511}, {"measurement": "Gq hCB1", "setting": "Log [Compound] (M) -12.8861", "value": 1023}, {"measurement": "Gs hCB1", "setting": "Log [Compound] (M) -12.8861", "value": 6621}, {"measurement": "pEC50 [95% CI]", "setting": "hCB1 G13", "value": "8.69 [8.0 – 9.3]"}, {"measurement": "RE, relative efficacy", "setting": "hCB1 G13", "value": 0.91}, {"measurement": "RE, relative efficacy", "setting": "hCB1 G15", "value": 0.74}, {"measurement": "pEC50 [95% CI]", "setting": "hCB1 Gi1", "value": "9.32 [9.2 – 9.4]"}, {"measurement": "RE, relative efficacy", "setting": "hCB1 Gi1", "value": 0.97}, {"measurement": "pEC50 [95% CI]", "setting": "hCB1 Gi2", "value": "9.25 [9.0 – 9.5]"}, {"measurement": "RE, relative efficacy", "setting": "hCB1 Gi2", "value": 1.01}, {"measurement": "pEC50 [95% CI]", "setting": "hCB1 GoB", "value": "9.20 [9.1 – 9.3]"}, {"measurement": "RE, relative efficacy", "setting": "hCB1 GoB", "value": 1.04}, {"measurement": "RE, relative efficacy", "setting": "hCB1 Gz", "value": 0.62}, {"measurement": "RE, relative efficacy", "setting": "hCB1 ßarr2+GRK2", "value": 0.81}, {"measurement": "EC50", "setting": "read-out: EC50 [95% CI], hCB1 Barr2 + GRK2", "value": 3.6, "unit": "nM"}]}]}
